From patent US20180206495A1, “SUBSTITUTED ARYL AND HETEROARYL CARBOXYLIC ACID HYDRAZIDES OR SALTS THEREOF AND USE THEREOF TO INCREASE STRESS TOLERANCE IN PLANTS” (BAYER CROPSCIENCE AKTIENGESELLSCHAFT, priority 2015, published 2018)

Tested on: Brassica napus
Assay: In vivo analyses Part B: drought stress, spray application, appearance vs stressed control in categories, Brassica napus
Design: key: 0: no positive effect; +: slight positive effect; ++: clear positive effect; +++: strong positive effect
Settings: dosage 25 g/ha
Protocol: (§1) Seeds of monocotyledonous and dicotyledonous crop plants were sown in sandy loam in plastic pots, covered with soil or sand and cultivated in a greenhouse under good growth conditions. The test plants are treated at the early leaf stage (BBCH10-BBCH13). To assure uniform water supply before commencement of stress, the potted plants were supplied with water by dam irrigation prior to substance application. The inventive compounds were first formulated as wettable powders (WP) or dissolved in a solvent mixture. The further dilution was effected with water supplemented with 0.2% wetting agent (e.g. agrotin). The finished spray liquor was sprayed onto the green parts of the plant at an equivalent water application rate of 600 l/ha. Substance application was followed immediately by stress treatment of the plants. Drought stress was induced by gradual drying out under the following conditions: “Day”: 14 hours with illumination at ˜26-30° C. “Night”: 10 hours without illumination at ˜18-20° C. The duration of the respective stress phases was guided mainly by the condition of the stressed control plants. It was ended (by re-irrigating and transfer to a greenhouse with good growth conditions) as soon as irreversible damage was observed on the stressed control plants. The end of the stress phase was followed by an about 4-7-day recovery phase, during which the plants were once again kept under good growth conditions in a greenhouse. The duration of the recovery phase was guided mainly by when the trial plants had attained a state which enabled visual scoring of potential effects, and was therefore variable. Once this juncture had been reached, the appearance of the plants treated with test substances was recorded in comparison to the stressed control plants by the following categories: • 0 no positive effect • + slight positive effect • ++ clear positive effect • +++ strong positive effect In order to rule out any influence on the effects observed by any fungicidal or insecticidal action of the test compounds, it was additionally ensured that the tests proceeded without fungal infection or insect infestation. The values reported in tables B-1 and B-2 below are mean values of the results from at least three repeats. Effects of selected compounds of the general formula (I) under drought stress according to the following tables B-1 and B-2: […]

Structure (SMILES) | Effect (BRSNS)
CN(C)N(Cc1c(F)cccc1F)C(=O)c1ccccc1C(F)(F)F [A1-17] | ++
CN(C)N(Cc1cccnc1C#N)C(=O)c1ccccc1C(F)(F)F [A1-679] | +
CN(C)N(Cc1ncc(C(F)(F)F)cc1Cl)C(=O)c1ccc(C#N)cc1C(F)(F)F [A48-36] | ++
CN(C)N(Cc1cc(Cl)c(Cl)cc1Cl)C(=O)c1ccc(F)cc1C(F)(F)F [A14-138] | +
CN(C)N(Cc1cccc(C#N)c1)C(=O)c1ccccc1C(F)(F)F [A1-62] | ++
CN(C)N(Cc1ccc(Cl)nc1)C(=O)c1ccc(Cl)cc1Cl [A12-94] | +
CN(C)N(Cc1ccccc1C(F)(F)F)C(=O)c1ccccc1C(F)(F)F [A1-81] | +
CN(C)N(Cc1ccccc1Cl)C(=O)c1cncnc1C(F)(F)Cl [E3-1] | +
Cc1ccc(C(=O)N(Cc2ncc(C(F)(F)F)cc2Cl)N(C)C)c(C(F)(F)F)c1 [A50-36, N-[3-Chloro-5-(trifluoromethyl)pyridin-2-yl-methyl]-N′,N′-dimethyl-2-(trifluoromethyl)-4-methylbenzohydrazide] | +
Cc1ccc(C(=O)N(Cc2ccccc2C#N)N(C)C)c(C(F)(F)F)c1 [A50-61] | +

Same assay, conditions: dosage 100 g/ha

Structure (SMILES) | Effect (BRSNS)
CN(C)N(Cc1ccccc1C#N)C(=O)c1ccnnc1 [G1-61] | +
CN(C)N(Cc1ncc(C(F)(F)F)cc1Cl)C(=O)c1ccc(Cl)cc1Cl [A12-36] | +

Same assay, conditions: dosage 250 g/ha

Structure (SMILES) | Effect (BRSNS)
CN(C)N(Cc1nccc(Cl)c1Cl)C(=O)c1ccccc1Cl [A10-40] | ++
CN(C)N(Cc1ncc(C(F)(F)F)cc1Cl)C(=O)c1ccc(Cl)cc1C(F)(F)F [A51-36] | +
COC(=O)c1ccccc1CN(C(=O)c1ccccc1C(F)(F)F)N(C)C [A1-603] | ++
CN(C)N(Cc1cccnc1C#N)C(=O)c1ccccc1I [A36-679] | +
CN(C)N(Cc1ccccc1C#N)C(=O)c1cnccc1C(F)(F)F [B1-61] | ++
CN(C)N(Cc1ccc(C(F)(F)F)cc1Cl)C(=O)c1ccc(F)cc1C(F)(F)F [A14-91] | +
CCN(C)N(Cc1nccc(Cl)c1Cl)C(=O)c1ccccc1C(F)(F)F [A5-40] | +
CN(C)N(Cc1c(Cl)cccc1Cl)C(=O)c1cnccc1C(F)(F)F [B1-7] | +++
CN(C)N(Cc1ccc(F)cc1F)C(=O)c1cnccc1C(F)(F)F [B1-15] | +++
CN(C)N(Cc1ccccc1Cl)C(=O)c1ccccc1I [A36-1] | +
CN(C)N(Cc1cccnc1C#N)C(=O)c1cnccc1C(F)(F)F [B1-679] | ++
CN(C)N(Cc1ncccn1)C(=O)c1ccccc1I [A36-27] | +
CN(C)N(Cc1ccccn1)C(=O)c1ccc(C(F)(F)F)nc1 [B5-21] | +
CN(C)N(Cc1ccc(C#N)cc1)C(=O)c1ccccc1C(F)(F)F [A1-63] | +
CN(C)N(Cc1c(F)cccc1F)C(=O)c1ccccc1Cl [A10-17] | +
CN(C)N(Cc1c(Cl)c(Cl)c(C(F)(F)F)c(Cl)c1Cl)C(=O)c1ccc(F)cc1C(F)(F)F [A14-680] | ++
CN(C)N(Cc1ncccn1)C(=O)c1ccccc1C(F)(F)F [A1-27] | ++
CN(C)N(Cc1ccc(Cl)nc1)C(=O)c1ccccc1Cl [A10-94] | +
CN(C)N(Cc1ccc(C#N)cc1)C(=O)c1cnccc1C(F)(F)F [B1-63] | +++
CN(C)N(Cc1cccnc1C#N)C(=O)c1ccccc1Cl [A10-679] | ++
CN(C)N(Cc1ccc(Cl)cc1Cl)C(=O)c1cnccc1C(F)(F)F [B1-5] | +++
CN(C)N(Cc1nccc(Cl)c1Cl)C(=O)c1cnccc1C(F)(F)F [B1-40] | +
CN(C)N(Cc1c(Cl)cc(Cl)cc1Cl)C(=O)c1cnccc1C(F)(F)F [B1-10] | +++
CCN(C)N(Cc1ccccc1C#N)C(=O)c1cnccc1C(F)(F)F [B17-61] | +

Tested on: Triticum aestivum
Assay: In vivo analyses Part B: drought stress, spray application, appearance vs stressed control in categories, Triticum aestivum
Design: key: 0: no positive effect; +: slight positive effect; ++: clear positive effect; +++: strong positive effect
Settings: dosage 25 g/ha
Protocol: as §1

Structure (SMILES) | Effect (TRZAS)
CN(C)N(Cc1ncc(C(F)(F)F)cc1Cl)C(=O)c1ccc(Cl)cc1C(F)(F)F [A51-36] | +
CN(C)N(Cc1ccc(Cl)nc1)C(=O)c1ccc(C(F)(F)F)nc1 [B5-94] | +
COc1ccccc1C(=O)N(Cc1ccc(Cl)nc1)N(C)C [A8-94] | +
CN(C)N(Cc1cc(Cl)c(Cl)cc1Cl)C(=O)c1ccc(F)cc1C(F)(F)F [A14-138] | +
CN(C)N(Cc1ccccc1Cl)C(=O)c1ccc(C(F)F)nc1 [B6-1] | ++
CN(C)N(Cc1ccc(C(F)(F)F)cc1Cl)C(=O)c1ccc(F)cc1C(F)(F)F [A14-91] | +
CN(C)N(Cc1ccccc1Cl)C(=O)c1cncnc1C(F)(F)Cl [E3-1] | +
CN(C)N(Cc1ccc(Cl)cc1Cl)C(=O)c1ccc(F)cc1C(F)(F)F [A14-5] | +
CN(C1CCCCC1)N(Cc1ccccn1)C(=O)c1cnccc1C(F)(F)F [B18-21] | +
CN(C)N(Cc1ccccn1)C(=O)c1cncnc1C(F)(F)F [E1-21] | +
CN(C1CCCCC1)N(Cc1ccccc1Cl)C(=O)c1cnccc1C(F)(F)F [B18-1] | ++
COc1ccccc1C(=O)N(Cc1ncc(C(F)(F)F)cc1Cl)N(C)C [A8-36] | ++

Same assay, conditions: dosage 100 g/ha

Structure (SMILES) | Effect (TRZAS)
CN(C)N(Cc1ccccc1C#N)C(=O)c1ccnnc1 [G1-61] | +

Same assay, conditions: dosage 250 g/ha

Structure (SMILES) | Effect (TRZAS)
CC(c1ccc(F)cc1)N(C(=O)c1ccccc1C(F)(F)F)N(C)C (stereo not shown) [A1-159] | +
CN(C)N(Cc1nccc(Cl)c1Cl)C(=O)c1ccccc1I [A36-40] | +
CN(C)N(Cc1ccccc1C(F)(F)F)C(=O)c1ccccc1Cl [A10-81] | +
CN(C1CCCCC1)N(Cc1ccccn1)C(=O)c1ccccc1C(F)(F)F [A47-21] | +
CN(C)N(Cc1ccccc1C#N)C(=O)c1cncnc1C(F)(F)Cl [E3-61] | +
CN(C)N(Cc1cccnc1C#N)C(=O)c1ccccc1C(F)(F)F [A1-679] | +
CN(C)N(Cc1cccnc1C#N)C(=O)c1ccccc1I [A36-679] | +
CN(C)N(Cc1ccc(C#N)cc1)C(=O)c1ccccc1I [A36-63] | +
CN(C)N(Cc1ccc(Cl)nc1)C(=O)c1ccc(Cl)cc1Cl [A12-94] | +
CN(C)N(Cc1ccccc1Cl)C(=O)c1ccc(Cl)cc1C(F)(F)F [A51-1] | +
CCN(C)N(Cc1nccc(Cl)c1Cl)C(=O)c1ccccc1C(F)(F)F [A5-40] | +
CN(C)N(Cc1c(Cl)cccc1Cl)C(=O)c1cnccc1C(F)(F)F [B1-7] | +
CN(C)N(Cc1ccccc1C(F)(F)F)C(=O)c1ccccc1C(F)(F)F [A1-81] | +
CN(C)N(Cc1ccc(F)cc1F)C(=O)c1cnccc1C(F)(F)F [B1-15] | +
CN(C)N(Cc1ccc(Cl)nc1)C(=O)c1cnccc1C(F)(F)F [B1-94] | +
CCN(CC)N(Cc1cccc(Cl)c1Cl)C(=O)c1ccccc1C(F)(F)F [A2-4, N-(2,3-Dichlorobenzyl)-N′,N′-diethyl-2-(trifluoromethyl)benzohydrazide] | +
CCN(C)N(Cc1ccccc1C#N)C(=O)c1ccccc1C(F)(F)F [A5-61] | +
CN(C)N(Cc1ccccc1C#N)C(=O)c1ccc(C(F)F)nc1 [B6-61] | +
CCN(C)N(Cc1nccc(Cl)c1Cl)C(=O)c1cnccc1C(F)(F)F [B17-40] | +
CN(C)N(Cc1ccccn1)C(=O)c1ccc(C(F)F)nc1 [B6-21] | +
CCN(CC)N(Cc1ccccn1)C(=O)c1cnccc1C(F)(F)F [B2-21, N′,N′-Diethyl-N-(pyridin-2-ylmethyl)-4-(trifluoromethyl)nicotinohydrazide] | +
CN(C)N(Cc1c(Cl)cc(Cl)cc1Cl)C(=O)c1ccccc1I [A36-10] | +
CN(C)N(Cc1ccccc1Cl)C(=O)c1ccc(C(F)(F)F)nc1 [B5-1] | +
CN(C)N(Cc1ccccc1C(F)(F)F)C(=O)c1ccccc1I [A36-81] | +
CN(C)N(Cc1c(Cl)cccc1Cl)C(=O)c1ccccc1I [A36-7] | +
CN(C)N(Cc1ccc(Cl)nc1)C(=O)c1cncnc1C(F)(F)F [E1-94] | +
CN(C)N(Cc1ccc(Cl)nc1)C(=O)c1ccccc1C(F)(F)F [A1-94, N-[(6-Chloropyridin-3-yl)methyl]-N′,N′-dimethyl-2-(trifluoromethyl)benzohydrazide] | +
